Assays:
HeLa [1] = assay: Cellular uptake in human HeLa cells at 5 uM after 4 hrs by flow cytometry relative control; assay type: ADME, cell-based
[2] = Cellular uptake in human HeLa cell mitochondria using mitotracker dye at 1 uM after 4 hrs; assay type: ADME
[3] = Cellular uptake in human HeLa cell mitochondria using mitotracker dye at 5 uM after 1 hr by confocal microscopy in presence of FCCP; assay type: ADME
[4] = Cellular uptake in human HeLa cell mitochondria using mitotracker dye at 5 uM after 30 mins; assay type: ADME; conditions: 0.5 h
[5] = Cellular uptake in human HeLa cell mitochondria using mitotracker dye at 5 uM after 4 hrs; assay type: ADME
[6] = Cellular uptake in human HeLa cell lysosomes using LysoTracker dye at 1 uM after 4 hrs; assay type: ADME, cell-based, Lysosome
[7] = Cellular uptake in human HeLa cell lysosomes using LysoTracker dye at 5 uM after 1 hr by confocal microscopy in presence of FCCP; assay type: ADME, cell-based, Lysosome
[8] = Cellular uptake in human HeLa cell cytosol at 5 uM after 1 hr by confocal microscopy in presence of FCCP; assay type: ADME, cell-based
HeLa [9] = assay: Cellular uptake in human HeLa cells after 4 hrs by flow cytometry; assay type: ADME, cell-based
HeLa [10] = assay: Cellular uptake in human HeLa cells assessed as increase in cellular fluorescence at 5 uM after 4 hrs by flow cytometry relative to control; assay type: ADME, cell-based
HeLa [11] = assay: Cellular uptake in human HeLa cells up to 2.5 uM after 4 hrs by flow cytometry; assay type: ADME, cell-based

Compound	Ratio (HeLa [1])	Drug uptake [2]	Drug uptake [3]	Drug uptake [4]	Drug uptake [5]	Drug uptake [6]	Drug uptake [7]	Drug uptake [8]	Drug uptake (HeLa [9])	Ratio (HeLa [10])	Drug uptake (HeLa [11])
CC(C)CO[C@H]1C[C@H](C(=O)N2C[C@@H](OCCCNC(=N)N)C[C@@H]2C(=O)N2C[C@@H](OCCCNC(=N)N)C[C@@H]2C(=O)N2C[C@@H](OCC(C)C)C[C@@H]2C(=O)N2C[C@@H](OCCCNC(=N)N)C[C@@H]2C(=O)N2C[C@@H](OCCCNC(=N)N)C[C@@H]2C(=O)N2C[C@@H](OCC(C)C)C[C@@H]2C(N)=O)N(C[C@H]2C[C@H](OCCCNC(=N)N)CN2C(=O)[C@H]2C[C@H](OCCCNC(=N)N)CN2C(=O)[C@H]2C[C@H](OCC(C)C)CN2C(=O)[C@H]2C[C@H](OCCCNC(=N)N)CN2C(=O)[C@H]2C[C@H](OCCCNC(=N)N)CN2C(=O)[C@H]2C[C@H](OCC(C)C)CN2C(=O)CNC(=O)c2cccc(-c3c4ccc(=O)cc-4oc4cc(O)ccc34)c2C(=O)O)C1	7.5	Active	Not Active	Active	Active	Active	Active	Active	Dose-dependent effect	14	
N=C(N)NCCC[C@H](NC(=O)[C@H](CCCNC(=N)N)NC(=O)[C@H](CCCNC(=N)N)NC(=O)[C@H](CCC(N)=O)NC(=O)[C@H](CCCNC(=N)N)NC(=O)[C@H](CCCNC(=N)N)NC(=O)[C@H](CCCCN)NC(=O)[C@H](CCCCN)NC(=O)[C@H](CCCNC(=N)N)NC(=O)CNC(=O)[C@H](Cc1ccc(O)cc1)NC(=O)c1ccccc1-c1c2ccc(=O)cc-2oc2cc(O)ccc12)C(N)=O											Not Active

Reference: ChEMBL document CHEMBL1932963, “Mitochondrial targeting of a cationic amphiphilic polyproline helix” (Bioorg Med Chem Lett, 2012)
